Test [1] addresses T1, catalytic domain (JH1) of JAK2 protein (Homo sapiens, UniProt O60674).
T1 construct: phosphorylated on the tyrosine residue by catalytic domain (JH1) of JAK2 protein; purchased BPS 40450
Put plainly: JAK2 (JH1) Enzymatic Assay at ATP=Km (30 μM), TR-FRET. Format: biochemical. Particulars: 30 μM ATP (=Km), 60 min at 25° C., read-out: V617F ENZ 30 μM. The method, then: Example A. JAK2 (JH1) Enzymatic Assay at ATP=Km (30 μM)
Inhibitor potency was determined in TR-FRET assay, which measures HTRF signal generated as a result of Eu-labeled anti-phosphotyrosine antibody binding to Biotin-labeled peptide, phosphorylated on the tyrosine residue by catalytic domain (JH1) of JAK2 protein in the presence of ATP-Mg and Allophycocyanin-streptavidin (APC-SA). JH1 domain of JAK2 protein was purchased from BPS (#40450), Eu-W1204-labeled Anti-Phosphotyrosine Antibody (PY-20) and SureLight Allophycocyanin-streptavidin were purchased from PerkinElmer (#AD0067 and #AD0201). Peptide Biot-EQEDEPEGDYFEWLEES-amide (SEQ ID NO.: 1) was purchased from Quality Controlled Biochemicals, MA (Q307-166). Assay buffer consisted of 50 mM Tris, pH=7.5, 10 mM MgCl2, 0.01% Brij-35, 0.1% BSA, 1 mM EGTA, 5% Glycerol and 5 mM DTT. To assess the inhibition of the enzymatic activity, compound was serially diluted in DMSO and a volume of 0.1 μL was transferred to the wells of a black regular volume 384-well plate (Greiner #781076) using Echo Liquid Handler (Labcyte Inc.). Positive and Negative control wells contained 0.1 μL of DMSO.
Enzyme (catalytic domain JH1 of JAK2) was diluted in assay buffer, and the Multidrop Combi liquid handler (Thermo Scientific) was used to dispense 10 μL to each well (except positive control wells, to which 10 μL of assay buffer were dispensed instead of protein).
Plate was centrifuged and reaction was started by addition of 10 μL of substrate solution containing biotinylated peptide and ATP to all wells. Plate was again centrifuged and enzymatic reaction was allowed to proceed for 60 min. at 25° C. Final concentrations in the assay were as follows: 0.02 nM protein, 30 uM ATP, 0.5 uM biotinylated peptide. Reaction was stopped by addition of 10 μL of solution, containing 45 mM EDTA, 144 nM APC/225 nM Streptavidin, and 4.5 nM Eu-Ab in detection buffer: 50 mM Tris, pH=7.8, 150 mM NaCl, 0.5 mg/ml BSA.
Plate was centrifuged and incubated for 30 min. at room temperature. HTRF signal was measured on PHERAstar plate reader instrument (BMG Labtech) with excitation at 337 nm and emissions at 620 nm and 665 nm. Data analysis tools integrated in Genedata Screener software were used to analyze the results. Raw data was normalized to percent of vehicle (DMSO) Negative control, after subtracting no-enzyme Positive inhibitor control. The IC50 values were derived by fitting the data to a four parameter logistic equation producing a sigmoidal dose-response curve using the following equation: Y=Bottom+(Top−Bottom)/(1+10^((Log IC50−X)*Hill slope)) where X is the logarithm of inhibitor concentration and Y is the response.
In general terms: TR-FRET usually uses a lanthanide donor and a delayed reading to cut background.

The target of test [2] is T2, pseudo-kinase domain (JH2) of human V617F mutant JAK2 (Homo sapiens, UniProt O60674, F794H/V617F/W659A/W777A).
T2 construct: pseudo-kinase domain (JH2, amino-acids 536-812 with 3 surface mutations W659A, W777A, F794H); purchased BPS Bioscience 79498; host or cells: baculovirus expression system
T2 sequence (O60674 536-812 V617F/W659A/W777A/F794H): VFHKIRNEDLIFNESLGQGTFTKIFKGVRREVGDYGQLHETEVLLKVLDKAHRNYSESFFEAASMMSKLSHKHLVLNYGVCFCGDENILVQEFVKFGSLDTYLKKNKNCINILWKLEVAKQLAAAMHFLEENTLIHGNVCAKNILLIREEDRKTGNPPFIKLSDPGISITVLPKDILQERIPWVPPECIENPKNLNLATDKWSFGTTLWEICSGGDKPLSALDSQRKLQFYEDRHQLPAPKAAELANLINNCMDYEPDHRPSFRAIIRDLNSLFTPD
The experiment in a line: JAK2 LanthaScreen JH2-V617F Binding Assay. The following applies: 50 nM Fluorescent JAK2-JH2 Tracer, 1 hour at 25° C., read-out: JH2 BIND V617F. The method, then:
Example B. JAK2 LanthaScreen JH2-V617F Binding Assay
JAK2 JH2-V617F binding assay utilizes pseudo-kinase domain (JH2, amino-acids 536-812 with 3 surface mutations W659A, W777A, F794H) of human V617F mutant JAK2 expressed as C-terminal His-Avi-tagged, biotinylated protein in a baculovirus expression system (BPS Bioscience, Catalog #79498). The assay was conducted in black 384-well polystyrene plates in a final reaction volume of 20 μL. JAK2 JH2-V617F (0.26 nM) was incubated with compounds (100 nL serially diluted in DMSO) in the presence of 50 nM Fluorescent JAK2-JH2 Tracer (MedChem Express Catalog #HY-102055) and 0.25 nM Streptavidin-Tb cryptate (Cisbio Part #610SATLB) in assay buffer (50 mM Tris, pH=7.5, 10 mM MgCl2, 0.01% Brij-35, 0.1% BSA, 1 mM EGTA, 5% Glycerol and 5 mM DTT). Non-specific binding was accessed in the presence of 2 mM ATP. After incubation for 1 hour at 25° C., LanthaScreen signals were read on a PHERAstar FS plate reader (BMG LABTECH). Data was analyzed with IDBS XLfit and GraphPad Prism 5.0 software using a four parameter dose response curve to determine IC50 for each compound.

Structures are written as SMILES. Where only a bound is given, the exact number is not on record here.

T1 sequence (O60674 849-1124 limits assumed): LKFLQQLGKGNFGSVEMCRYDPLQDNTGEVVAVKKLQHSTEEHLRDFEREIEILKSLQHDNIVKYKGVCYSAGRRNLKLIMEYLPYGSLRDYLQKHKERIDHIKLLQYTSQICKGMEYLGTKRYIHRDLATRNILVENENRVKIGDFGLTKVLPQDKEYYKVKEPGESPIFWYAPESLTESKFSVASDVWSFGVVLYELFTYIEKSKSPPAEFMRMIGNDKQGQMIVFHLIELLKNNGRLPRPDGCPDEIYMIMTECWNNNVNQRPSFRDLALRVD

As for `CNc1ncc(-c2cccc(-c3cnn(C4CN(Cc5cccc(C(=O)N(C)C)n5)C4)c3)c2OC)c2cc(NC(=O)C3CC3)ncc12` [Example 1, 6-((3-(4-(3-(6-(Cyclopropanecarboxamido)-1-(methylamino)-2,7-naphthyridin-4-yl)-2-methoxyphenyl)-1H-pyrazol-1-yl)azetidin-1-yl)methyl)-N,N-dimethylpicolinamide], the IC50 was > 1000 nM in test [1] and ≤ 10 nM in test [2].

Take `CNc1ncc(-c2cccc(-c3cnn(C4CN(Cc5cccc(C(=O)N(C)C6CC6)n5)C4)c3)c2OC)c2cc(NC(=O)C3CC3)ncc12` [Example 2, 6-((3-(4-(3-(6-(Cyclopropane-carboxamido)-1-(methylamino)-2,7-naphthyridin-4-yl)-2-methoxyphenyl)-1H-pyrazol-1-yl)azetidin-1-yl)methyl)-N-cyclopropyl-N-methyl-picolinamide]: the IC50 in test [1] was > 1000 nM; in test [2] it was ≤ 10 nM.

As for `CNc1ncc(-c2cccc(-c3cnn(C4CN(Cc5cccc(C(=O)N(C)CC(F)(F)F)n5)C4)c3)c2OC)c2cc(NC(=O)C3CC3)ncc12` [Example 3, 6-((3-(4-(3-(6-(Cyclopropane-carboxamido)-1-(methylamino)-2,7-naphthyridin-4-yl)-2-methoxyphenyl)-1H-pyrazol-1-yl)azetidin-1-yl)methyl)-N-methyl-N-(2,2,2-trifluoroethyl) picolinamide], the IC50 in test [1] is > 1000 nM; in test [2], ≤ 10 nM.

Turning to `CNc1ncc(-c2cccc(-c3cnn(C4CN(Cc5cccc(C(=O)N6CCCC6)n5)C4)c3)c2OC)c2cc(NC(=O)C3CC3)ncc12` [Example 4, N-(5-(2-Methoxy-3-(1-(1-((6-(pyrrolidine-1-carbonyl)pyridin-2-yl)methyl)azetidin-3-yl)-1H-pyrazol-4-yl)phenyl)-8-(methylamino)-2,7-naphthyridin-3-yl)cyclopropane-carboxamide], the figures for the IC50 in test [1] and in test [2] were > 1000 nM and ≤ 10 nM, respectively.

For `CNc1ncc(-c2cccc(-c3cnn(C4CN(Cc5csc(C(=O)N(C)CC(F)(F)F)n5)C4)c3)c2OC)c2cc(NC(=O)C3CC3)ncc12` [Example 5, 4-((3-(4-(3-(6-(Cyclopropane-carboxamido)-1-(methylamino)-2,7-naphthyridin-4-yl)-2-methoxyphenyl)-1H-pyrazol-1-yl)azetidin-1-yl)methyl)-N-methyl-N-(2,2,2-trifluoroethyl) thiazole-2-carboxamide], the IC50 in test [1] was > 1000 nM; in test [2], 10 to 100 nM.

On to `CNc1ncc(-c2cccc(-c3cnn(C4CN(Cc5cccc(S(C)(=O)=O)n5)C4)c3)c2OC)c2cc(NC(=O)C3CC3)ncc12` [Example 6, N-(5-(2-Methoxy-3-(1-(1-((6-(methylsulfonyl)pyridin-2-yl)methyl)azetidin-3-yl)-1H-pyrazol-4-yl)phenyl)-8-(methylamino)-2,7-naphthyridin-3 yl)cyclopropane carboxamide], for which the IC50 in test [1] was > 1000 nM; in test [2], ≤ 10 nM.

For `CNc1ncc(-c2cccc(-c3cnn(C4CN(Cc5cccc(C(F)F)n5)C4)c3)c2OC)c2cc(NC(=O)C3CC3)ncc12` [Example 7, N-(5-(3-(1-(1-((6-(Difluoromethyl)pyridin-2-yl)methyl)azetidin-3-yl)-1H-pyrazol-4-yl)-2-methoxyphenyl)-8-(methylamino)-2,7-naphthyridin-3-yl)cyclopropanecarboxamide], the IC50 was > 1000 nM in test [1] and ≤ 10 nM in test [2].

With `CNc1ncc(-c2cccc(-c3cnn(C4CN(C(=O)c5cccc(C(=O)N(C)C)n5)C4)c3)c2OC)c2cc(NC(=O)C3CC3)ncc12` [Example 8, 6-(3-(4-(3-(6-(Cyclopropanecarboxamido)-1-(methylamino)-2,7-naphthyridin-4-yl)-2-methoxyphenyl)-1H-pyrazol-1-yl)azetidine-1-carbonyl)-N,N-dimethylpicolinamide], the IC50 in test [1] was > 1000 nM; in test [2], ≤ 10 nM.

Take `CNc1ncc(-c2cccc(-c3cnn(C4CCN(Cc5ccccn5)CC4)c3)c2OC)c2cc(NC(=O)C3CC3)ncc12` [Example 9, N-(5-(2-Methoxy-3-(1-(1-(pyridin-2-ylmethyl)piperidin-4-yl)-1H-pyrazol-4-yl)phenyl)-8-(methylamino)-2,7-naphthyridin-3-yl)cyclopropanecarboxamide]: the IC50 was > 1000 nM in test [1] and 10 to 100 nM in test [2].

As to `CNc1ncc(-c2cccc(-c3cnn(C(C)C(=O)O)c3)c2OC)c2cc(NC(=O)C3CC3)ncc12` (stereo not shown) [Example 10, 2-(4-(3-(6-(Cyclopropanecarboxamido)-1-(methylamino)-2,7-naphthyridin-4-yl)-2-methoxyphenyl)-1H-pyrazol-1-yl)propanoic acid], the results for the IC50 in test [1] and in test [2] were > 1000 nM and 10 to 100 nM, respectively.

In the case of `CNc1ncc(-c2cccc(-c3cnn(C4CN(Cc5cccc(C(=O)N(C)C)n5)C4)c3)c2OC)c2cc(NC(=O)C3CC3)nnc12` [Example 11, 6-((3-(4-(3-(3-(Cyclopropanecarboxamido)-8-(methylamino)pyrido[3,4-c]pyridazin-5-yl)-2-methoxyphenyl)-1H-pyrazol-1-yl)azetidin-1-yl)methyl)-N,N-dimethylpicolinamide], the figures for the IC50 in test [1] and in test [2] were > 1000 nM and ≤ 10 nM, respectively.

Take `CNc1ncc(-c2cccc(-c3cnn(C4CN(Cc5cccc(C(=O)N(C)C6CC6)n5)C4)c3)c2OC)c2cc(NC(=O)C3CC3)nnc12` [Example 12, 6-((3-(4-(3-(3-(Cyclopropanecarboxamido)-8-(methylamino)pyrido[3,4-c]pyridazin-5-yl)-2-methoxyphenyl)-1H-pyrazol-1-yl)azetidin-1-yl)methyl)-N-cyclopropyl-N-methylpicolinamide]: the results for the IC50 in test [1] and in test [2] were > 1000 nM and ≤ 10 nM, respectively.

On to `CNc1ncc(-c2cccc(-c3cnn(C4CN(Cc5cccc(C(=O)N(C)CC6CC6)n5)C4)c3)c2OC)c2cc(NC(=O)C3CC3)nnc12` [Example 13, 6-((3-(4-(3-(3-(Cyclopropane-carboxamido)-8-(methylamino)pyrido[3,4-c]pyridazin-5-yl)-2-methoxy-phenyl)-1H-pyrazol-1-yl)azetidin-1-yl)methyl)-N-(cyclopropyl-methyl)-N-methyl-picolinamide], for which the IC50 in test [1] is > 1000 nM; in test [2], ≤ 10 nM.

Regarding `CNc1ncc(-c2cccc(-c3cnn(C4CN(Cc5cccc(C(=O)N(C)CC(F)(F)F)n5)C4)c3)c2OC)c2cc(NC(=O)C3CC3)nnc12` [Example 14, 6-((3-(4-(3-(3-(Cyclopropane-carboxamido)-8-(methylamino)pyrido[3,4-c]pyridazin-5-yl)-2-methoxy-phenyl)-1H-pyrazol-1-yl)azetidin-1-yl)methyl)-N-methyl-N-(2,2,2-trifluoroethyl) picolinamide], the IC50 in test [1] was > 1000 nM; in test [2], ≤ 10 nM.

Source of the values: US20250163059A1, “HETEROCYCLIC KINASE INHIBITORS” (Incyte Corporation, priority 2023, published 2025).
